Assay results: paper PMC11404609, “Gut microbiota-mediated C-sulfonate metabolism impairs the bioavailability and anti-cholestatic efficacy of andrographolide” (Gut Microbes, 2024)
Counter-ions that a name gives are not always drawn. Like-named read-outs stand apart in the source and are kept apart here.

Assays:
[1] = Tissue distribution of AP and APM in mice; assay type: in vivo
Method: (§1) Control and ABX rats were orally administered a single dose of AP at 120 mg/kg. Control, ABX and germ-free C57BL/6J mice were orally administered a single dose of AP at 100 mg/kg. After 90 min of AP administration, all animals were euthanized, and blood and tissue samples were collected for subsequent analysis.
After 360 min of AP treatment, all mice were euthanized, and tissue samples were collected for subsequent analysis. […]
(§2) An ACQUITY^TM UPLC-MS/MS system equipped with an ACQUITY^TM UPLC BEH C18 Column (50 × 2.1 mm I.D., 1.7 μm, Waters, Milford, MA, USA) was utilized for the quantification of AP and APM as previously described.[47] Briefly, the detection samples (50 μL) were mixed with 50 μL of IS (50 ng/mL). AP and APM were extracted by 400 μL cold methanol. Supernatants were dried under nitrogen stream. Then, the residue was dissolved with 50% methanol in water, centrifuged for 30 min at 13,000 rpm, and 10 µL of the supernatant was subjected to UPLC-MS/MS analysis. The mobile phases consisted of eluent A (water) and eluent B (methanol) with a gradient elution as follows: 0–0.8 min, 10% B; 0.8–1.2 min, 10–90% B; 1.2–5.0 min, 90% B; 5.0–5.5 min, 90–10% B; 5.5–7.0 min, 10% B. The flow rate was 0.3 mL/min and the injection volume of all samples was 10 μL. The quantification of AP, APM and IS was performed by UPLC-MS/MS using an MRM method with the transitions of m/z 349.1→m/z 287.2 for AP, m/z 413.2→m/z 287.2 for APM, m/z 269→m/z 133 for IS.
(§3) AP was administered intravenously and orally to detect the production of the C-sulfonate metabolite APM. In tissue distribution experiment, rats were given AP intravenously (24 mg/kg) or orally (120 mg/kg), while mice received AP intravenously (20 mg/kg) or orally (100 mg/kg). After a 90-minute interval, the animals were sacrificed, and their liver, kidneys, small intestine, and colon were collected for analysis. In pharmacokinetic studies, rats were administered 24 mg/kg of AP intravenously or 120 mg/kg of AP by oral gavage. Blood samples were collected at predetermined time intervals (0, 5, 10, 20, 30, 40, 60, 90, 120, 180, 240, 360, and 480 min), as described, to detect the content of AP and APM by UPLC-MS/MS.

[2] = set-up: method as in PMID 21721007; settings: AP incubated with rat duodenal perfusate; cited from earlier work
[3] = Tissue distribution of AP and APM in rats; assay type: in vivo
Method: as §1, §2, §3

[4] = AP incubation with duodenal perfusate; assay type: in vitro ADME, rat; settings: AP 40 μM
Method: To investigate whether HSO3^- is the essential ligand for the C-sulfonate metabolism of AP, duodenal perfusate of SD rat was collected according to the method described in the literature^5. The duodenal perfusate was filtered by 0.22 μm Millex® needle filter, ultrafiltered by Amicon® Ultra filter or placed in an autoclave at 121°C for 2 hours, and then incubated with AP (40 μM) in vitro for 30, 60, 90 and 120 min. In another experiment, duodenal perfusate was autoclaved and then combined with HSO3^- (80 μM) and incubated with AP (40 μM) in vitro for 120 min. At the end of the incubation, 100 μL of ice-cold acetonitrile was quickly added to terminate the reaction. After centrifugation at 13000 rpm for 30 min, the supernatant was collected for UPLC-MS/MS analysis.

[5] = set-up: method as in PMID 36809835, PMID 34142342; settings: dose-dependent increase; cited from earlier work
HSO3^− = HSO3^− concentration in the cecum; assay type: in vivo; settings: mice
Method: Mice were orally administered APS reductase inhibitor bromocriptine mesylate (20 mg/kg, p.o.) or Na2SO4 (200 mg/kg, p.o.) or saline solution 1 week before AP treatment (a single dose of AP at 100 mg/kg, p.o.). After 360 min of AP treatment, all mice were euthanized, and tissue samples were collected for subsequent analysis. In specific cases, mice were orally administered D. piger suspension (0.2 mL, 1 × 10^9 CFU/mL) or saline solution 2 weeks before AP treatment (a single dose of AP at 100 mg/kg, p.o.).
(§4) For the determination of APS reductase concentration, the supernatant from mouse cecum contents and the D. piger strain were assessed using microorganism APS reductase elisa assay kit (Shanghai Senxingyan Biotechnology Co., Ltd., China), following the instructions provided with the kit. For the determination of HSO3^− concentration, cecum contents from mice or rats were weighed and homogenized in five volumes of normal saline (based on tissue weight). The homogenate was then subjected to centrifugation at 13,000 rpm and 4°C for 15 min. The supernatant (or perfusate) was collected and mixed with 0.2% formaldehyde, 0.05% basic fuchsin, and 0.01% EDTA-Na2 in a ratio of 1:1:1:9 under acidic conditions. To establish a standard curve, different concentrations of NaHSO3 were used. Subsequently, the absorbance of the resulting solutions was measured at a wavelength of 560 nm after 40 min.

APS reductase = APS reductase level in feces by qPCR; assay type: in vivo; settings: mice feces, bromocriptine mesylate 20 mg/kg p.o.
Method: Total RNA from frozen livers of Vehicle, AP (200 mg/kg, i.p.), ANIT (50 mg/kg), and ANIT+AP (200 mg/kg, i.p.) groups was extracted using the Animal Total RNA Isolation Kit (FOREGENE, China). cDNA was synthesized using a Color Reverse Transcription Kit (EZBioscience, Roseville, CA, USA). qPCR was performed using SYBR green/Rox qPCR master mix (EZBioscience, Roseville, CA, USA), according to the manufacturer’s instruction. The expression of target genes was normalized to β-actin, and fold changes were calculated using 2^–ΔΔCT method. For bacterial identification, genomic DNA of fecal flora was isolated using the TIANamp Stool DNA Kit (TIANGEN, Beijing, China) and qPCR was performed. The relative abundance and expression of Desulfovibrio spp., D. piger and APS reductase were normalized to the amounts of total bacteria (16S). All primers were synthesized by Tsingke Biotechnology Co., Ltd. (Beijing, China) and were listed in Supplementary Table S1.

[6] = Safety of APS reductase inhibitor (liver, renal, blood lipid indicators); assay type: in vivo; settings: mice, 20 mg/kg orally for 14 days
Method: Supplementary Figure 5. […] (A-D) Liver function indicators including ALT, AST, TBA, and TBIL. (E-G) Renal function indicators including CREA, UREA, and UA. (H-K) Blood lipid indicators including TG, TC, HDL-C, and LDL-C. Inhibitor refers to the treatment with the APS reductase inhibitor bromocriptine mesylate at a dosage of 20 mg/kg, administered orally for 14 days in mice. Data are presented as mean ± SEM (n = 8 per group).

intestinal flora of mice = experiment: Co-culturing AP with cecum samples from mice; assay type: in vitro ADME; settings: bromocriptine mesylate 20 μg/mL
Method: (§5) The cecum contents from mice were collected and mixed with sterilized anaerobic medium in a ratio of 1.0 g to 10 mL, with gentle agitation. After filtered, the mixed medium containing the intestinal flora was placed in an anaerobic environment and preincubated at 37°C for 30 min before use. Mixed medium with or without APS reductase inhibitor bromocriptine mesylate (20 μg/mL) was incubated with AP (10 μg/mL), while autoclaved mixed medium without APS reductase inhibitor served as the control. Incubation was performed in a shaking incubator at 37°C for 6 h, with strict maintenance of anaerobic condition throughout the process.[44] Similarly, D. piger (0.2 mL, 1 × 10^8 CFU/mL) with or without inhibitor, was incubated with AP for 0, 3, 6, and 12 h, with autoclaved D. piger without inhibitor serving as the control. The reaction was terminated by adding cold methanol contained IS. And then samples were analyzed by UPLC-MS/MS to detect the concentrations of AP and APM. Concentrations of APS reductase and HSO3^− were also determined at the end of incubation.
as §4

D. piger = assay type: in vitro ADME, Desulfovibrio piger; settings: D. piger with inhibitor
Method: as §5, with “The reaction was terminated by adding cold methanol contained IS.” left out
For the determination of APS reductase concentration, the supernatant from mouse cecum contents and the D. piger strain were assessed using microorganism APS reductase elisa assay kit (Shanghai Senxingyan Biotechnology Co., Ltd., China), following the instructions provided with the kit. […] Subsequently, the absorbance of the resulting solutions was measured at a wavelength of 560 nm after 40 min.

## C=C1CCC2C(C)(CO)C(O)CCC2(C)C1CC(C1=CCOC1=O)S(=O)(=O)O [APM, 14-deoxy-12(R)-sulfo andrographolide]
[1]; ABX-treated mice vs Control, AP 100 mg/kg oral
  concentration of APM in tissues: decreased
[1]; mice colonized with D. piger vs Control, AP 100 mg/kg p.o.
  concentration of APM in tissues: increase
[1]; mice of pharmacological experiment, AP 200 mg/kg, following ABX treatment vs Control
  level of APM in the intestine and liver: decreased significantly
[1]; mice, AP 200 mg/kg p.o. with APS reductase inhibitor vs without
  APM within the small intestine and liver: decrease
[1]; mice, oral administration of AP (100 mg/kg)
  APM in all tissues: significant amount of APM was detected
[1]; mice, tail vein administration of AP (20 mg/kg)
  APM in the intestine, liver, and kidneys: undetectable
[2]
  APM generation: large amounts
[3]; ABX-treated rats vs Control, AP 120 mg/kg oral
  levels of APM in plasma and tissues: reduced levels
[3]; rats, oral administration of AP (120 mg/kg)
  APM in all tissues: significant amount of APM was detected
[3]; rats, tail vein administration of AP (24 mg/kg)
  APM in the intestine, liver, and kidneys: undetectable
[4]; autoclaved duodenal perfusate
  APM generation: not detectable
[4]; autoclaved perfusate with addition of HSO3^− (80 μM), 120 min
  APM generation: production of APM
[4]; duodenal perfusate after filtration and ultrafiltration
  APM generation: continued APM generation

## CC[C@H]1[C@@H](O)[C@@H]2[C@H](CC[C@]3(C)[C@@H]([C@H](C)CCC(=O)O)CC[C@@H]23)[C@@]2(C)CC[C@@H](O)C[C@@H]12 [OCA, obeticholic acid]
[5]
  pruritus, share of treated patients: roughly 40%

## O=S(=O)([O-])[O-].[Na+].[Na+] [Na2SO4, sodium sulfate]
HSO3^−; Na2SO4 200 mg/kg p.o.
  HSO3^− content in the cecum: significant increase

## CC(C)C[C@H]1C(=O)N2CCC[C@H]2[C@]2(O)O[C@](NC(=O)[C@@H]3C=C4c5cccc6[nH]c(Br)c(c56)C[C@H]4N(C)C3)(C(C)C)C(=O)N12 [bromocriptine mesylate]
APS reductase
  APS reductase level: decrease
[6]
  damage to organism (liver function, renal function, blood lipid indicators): did not induce damage to organism
Intestinal flora of mice; AP 10 μg/mL, 6 h
  effect on conversion of AP into APM by the intestinal flora: effectively impeded
Intestinal flora of mice; co-culture of AP with cecum samples
  concentrations of APS reductase and HSO3^−: significant decrease
HSO3^−; bromocriptine mesylate 20 mg/kg p.o.
  HSO3^− content in the cecum: decrease
D. piger
  effect on D. piger metabolism of AP into APM (APS reductase and HSO3^− production): significantly inhibited
